In PMC5374420, “In Search of Small Molecule Inhibitors Targeting the Flexible CK2 Subunit Interface” (Pharmaceuticals, 2017):
Where a SMILES comes first, the peptide text is derived from it. Bridges are numbered along the chain shown (N, C = ends).

Tests used:
[1] = target: T1, CK2α/CK2β subunit interaction in MCF-10A cells (Homo sapiens, UniProt P68400); assay: In situ proximity ligation assay of CK2α and CK2β; assay type: cell-based; details: 50 µM, 6 h, WT MCF-10A cells; positive control 4.8 ± 1.5 dots/cell
T1 construct: endogenous in cells; host or cells: MCF-10A (WT)
T1 sequence (P68400 whole entry): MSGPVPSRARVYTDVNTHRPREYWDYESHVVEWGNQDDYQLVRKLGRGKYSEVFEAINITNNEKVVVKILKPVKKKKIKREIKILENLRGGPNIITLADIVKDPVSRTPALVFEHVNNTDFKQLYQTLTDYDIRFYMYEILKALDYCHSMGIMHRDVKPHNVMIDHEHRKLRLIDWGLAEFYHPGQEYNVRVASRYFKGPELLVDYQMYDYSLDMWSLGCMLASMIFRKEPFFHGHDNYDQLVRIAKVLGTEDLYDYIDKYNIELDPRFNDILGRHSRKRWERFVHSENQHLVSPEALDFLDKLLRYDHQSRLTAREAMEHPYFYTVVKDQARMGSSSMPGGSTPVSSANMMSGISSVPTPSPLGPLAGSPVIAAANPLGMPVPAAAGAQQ
Experimental: Figure 7 Uptake and cellular effects of TAT-Pc 13. (A) kinetic of TAMRA-TAT-Pc 13 uptake in MCF-10A cells; (B) WT or CK2β-depleted MCF-10A cells were incubated with 50 µM TAT or TAT-Pc 13 for 8 h and the expression of CK2 subunits was evaluated by Western blot; (C) anti-CK2β immunoprecipitates were prepared from WT MCF-10A cells incubated with 50 µM TAT or TAT-Pc 13 for 2 h. Presence of CK2 subunits in the corresponding immunoprecipitates was determined by Western blot; (D) in situ proximity ligation images of MCF-10A cells incubated with 50 µM TAT (a,b,d) or TAT-Pc 13 (c) for 6 h. WT cells were incubated with CK2α antibody alone (a) or CK2α and CK2β antibodies (b,c). […]
PLA is an antibody-based method representing a reliable readout of molecular proximity of two antigens located on two distinct proteins. […] The fluorescent signal from each pair of PLA probes confirms a close proximity and not simply subcellular colocalization and can then be detected and quantified as fluorescent spots in microscopic images of the cells. […] No signal was detected in CK2β-depleted cells (panel d).
In situ PLAs were performed using a Duolink kit (Olink Bioscience, Uppsala, Sweden) according to the manufacturer’s instructions with some modifications. […] Images were observed using a Zeiss Apotome microscope and analyzed using a Zen Pro imaging software (Zeiss, Oberkochen, Germany). […]

WT MCF-10A cells = assay: Cell death / viability, LIVE&DEAD assay, WT cells; assay type: cell-based
Experimental: Figure 8 Cellular effects of TAT-Pc 13. (A) MCF-10A cells were incubated with 25 µM of TAT-Pc 13 for 3 h and imaged with phase microscopy (upper panel) or with increasing concentrations of TAT-Pc 13 for 2 h and cell viability was evaluated using the LIVE&DEAD™ assay. Live cells fluoresce bright green (530 nm), whereas dead cells fluoresce red-orange (645 nm) (lower panel, scale bare: 100 µm); (B) WT (○-○) or CK2β-depleted (●-●) MCF-10A cells were incubated for 4 h with increasing concentrations of TAT-Pc 13 and cell death was evaluated using the LIVE&DEAD™ assay recording fluorescence at 645 nm. Representative data shown from two independent experiments in duplicate; (C) MCF-10A cells were pre-treated in the absence or presence of 20 µM z-VAD for 5 h and then incubated for 4 h with 25 µM random TAT-Pc 13 or TAT-Pc 13 and cell viability was evaluated as in (A) (scale bare: 100 µm); and (D) intracellular events induced by increasing concentrations of TAT-Pc 13. After 12 h of treatment, 786-O cells were lysed and analyzed by Western blot. TEXT PRINTED IN THE PICTURE: (B) TAT-Pc 13: TAT-Pc 13 (μM): 48; TAT-Pc 13 (μM): 60 DOUBTS OF THE COPYIST ABOUT THIS PICTURE: Panel B: 48 and 60 are printed in red at the x axis, where dashed lines drop from the two curves at about 50 on the Cell death (%) axis. No measure name (e.g. IC50) is printed with them.
Cells were seeded in 96-well microtiter plates at a concentration of 1 × 10^5 cells/mL and were allowed to attach for 24 h at 37 °C in 5% CO2. Cells were then exposed to different concentrations of TAT-Pc 13 for the indicated time. Cell viability was evaluated using the fluorescence-based LIVE&DEAD™ assay (Molecular Probes, Thermo Fisher Scientific, Courtaboeuf, France) according to the manufacturer. Images were taken with an Apotome-equipped Zeiss Axioimager microscope (Zeiss, Oberkochen, German) recording the fluorescence at 530 nm (Live cells) and 645 nm (dead cells) respectively using a FluoStar Optima plate reader (BMG LabTech, Ortenberg, Germany).

[2] = both WT and CK2β-depleted MCF-10A cells, 4 h

CC[C@H](C)[C@@H]1NC(=O)[C@H](CCCCN)NC(=O)[C@H](Cc2ccccc2)NC(=O)CNC(=O)[C@H](Cc2ccc(O)cc2)NC(=O)[C@H](CC(C)C)NC(=O)[C@H](CCCNC(=N)N)NC(=O)CNC(=O)CNC(=O)[C@@H](NC(=O)[C@H](CCC(N)=O)NC(=O)[C@@H]2CCCN2C(=O)[C@@H]2CCCN2C(=O)[C@H](CCCNC(=N)N)NC(=O)[C@H](CCCNC(=N)N)NC(=O)[C@H](CCCNC(=N)N)NC(=O)[C@H](CCC(N)=O)NC(=O)[C@H](CCCNC(=N)N)NC(=O)[C@H](CCCNC(=N)N)NC(=O)[C@H](CCCCN)NC(=O)[C@H](CCCCN)NC(=O)[C@H](CCCNC(=N)N)NC(=O)CN)CCCCNC(=O)CNC(=O)CNC(=O)[C@H](Cc2c[nH]cn2)NC1=O [TAT-Pc 13] (H-GRKKRRQRRRPPQKGGRLYGFKIHGG; lactam 14-C; N-terminus assumed)
number of CK2α/CK2β interaction dots [1]: 2.2 ± 1.1 dots/cell | concentration at which cell death became massive (WT MCF-10A cells; [2]): 50 to 60 µM | concentration at which cell death was already detectable (WT MCF-10A cells; [2]): 25 µM | cells rounded up and shrank (WT MCF-10A cells; three hours after addition, 25 µM (Figure 8A), phase microscopy): more than 50%
